The structures appear in SMILES notation. Where a SMILES comes first, the peptide text is derived from it. Side-chain parts run from the residue outwards. [ ]: non-standard residue; d: D form. The star is where a group is joined. Pteroyl = Nc1nc2ncc(CNc3ccc(C(=O)*)cc3)nc2c(=O)[nH]1; Cha = N[C@@H](CC1CCCCC1)C(=O)O; dCha = N[C@H](CC1CCCCC1)C(=O)O

One may read the EC50 as the concentration that produces a half-maximal response.

Holding throughout (type): cell-based, human
One data set deals with KB cells. As to the kind of experiment: Cell viability assay (CellTiter-Blue), KB cells. To be noted: 7 × 10^3 cells per well, folic acid-depleted RPMI-1640 + 10% FBS, 1% DMSO, 24 h at 37 °C, then CellTiter-Blue 4 h, three biological replicates fitted in Origin, standard error in brackets. The procedure: (§1) KB and MCF7 cells were kindly gifted by Prof. Arwyn T. Jones (Cardiff University), HEK293 cells were purchased from Public Health England, and SK-OV-3 cells were purchased from National Collection of Authenticated Cell Cultures (https://cell-bank.org.cn/). Cells were routinely tested for mycoplasma infection. KB and SK-OV-3 cells were maintained in T75 flasks at 37 °C in a 5% CO2 atmosphere in folic acid-depleted Roswell Park Memorial Institute (RPMI)-1640 medium supplemented with 10% (v/v) fetal bovine serum (FBS). MCF7 and HEK293 cells were maintained in T75 flasks at 37 °C in a 5% CO2 atmosphere in Dulbecco’s Modified Eagle’s medium (DMEM) supplemented with 10% (v/v) FBS. Cells were maintained at a sub-confluent monolayer and split at 80–85% confluency. For splitting, cells were washed with PBS, trypsinized in 1 mL of trypsin, and 200 µL of the 1000 µL trypsin cell suspension was re-suspended in 12 mL fresh DMEM containing 10% (v/v) FBS in a new T75 flask. KB and SK-OV-3 cells were used for biological experiments after being maintained for at least 10 days in folic acid-depleted RPMI-1640 medium.
(§2) SK-OV-3, MCF7, and HEK293 cells were seeded at a density of 2 × 10^4 cells per well in a Nunc™ MicroWell™ 96-well plate and grown at 37 °C in a 5% CO2 atmosphere in DMEM supplemented with 10% (v/v) FBS for 24 h. KB cells were seeded at a density of 7 × 10^3 cells per well in a 96-well plate and grown at 37 °C in a 5% CO2 atmosphere in folic acid-depleted RPMI-1640 medium supplemented with 10% (v/v) FBS for 24 h. Stock solutions of compounds 2–6 and 11–13 were obtained by dissolving the compounds in sterile deionized water. Compounds 1, and 7–10 were dissolved in pure DMSO. The stock solutions were diluted into the proper medium (according to the cell line tested) supplemented with 10% FBS to the appropriate concentration, and cells in each well were incubated with 100 µL of the solution. The solutions in each well were then adjusted to a concentration of 1% (v/v) DMSO. After 24 h at 37 °C, 20 µL of CellTiter-Blue™ was added to each well. The plate was incubated for another 4 h at 37 °C before analysis on a Perkin Elmer Victor X plate reader (excitation 531 nm; emission 595 nm). Each data point was calculated from a minimum of nine values resulting from three biological replicates (i.e., cells split from three different passages); each biological replicate is calculated from three technical replicates (i.e., cells split from the same passage). Value from media-only with CellTiter-Blue™ was set at 0% viability. This value was then subtracted from the values from cell-only (i.e., non-treated) wells with CellTiter-Blue™ in each biological replicate and set as 100% viability. For treatments of Cy3-containing compounds, blanks were generated with cell-free wells containing the compounds incubated for 24 h before addition of CellTiter-Blue™. The fluorescent reading for these wells was deducted from the treatment readings. Dose-response fitting curves were generated using Origin, version 2019b, OriginLab Corporation, Northampton, MA, USA (Figures S21–S24, Supplementary Materials).
(§3) Comparison of cytotoxicity fitting curves was achieved by applying the extra sum-of-squares F test, performed using GraphPad Prism version 9 for Windows, GraphPad Software, La Jolla, California, USA (https://www.graphpad.com/). […] Statistical analysis on the flow cytometry data was achieved by applying the unpaired two-tailed t-test test, performed using GraphPad Prism version 9 for Windows, GraphPad Software, La Jolla California USA, USA (https://www.graphpad.com/).
(§4) Cytotoxicity of 1–13 was evaluated using the CellTiter-Blue assay on KB, MCF7, SK-OV-3, and HEK293 cells. KB cells are derived from human cervical cancer, while SK-OV-3 cells are derived from human ovarian cancer. […] This feature is of particular relevance in anticancer applications, as it can be exploited for selective targeting and delivery. […]

Data set [1] concerns KB, MCF7, SK-OV-3, and HEK293 cells. As to the kind of experiment: Cell viability assay (CellTiter-Blue), statements over all tested cell lines. To be noted: for Selectivity of cytotoxicity between cell lines, in words: folate receptor α-high KB and SK-OV-3 versus MCF7 and HEK293. The procedure:
as §2, §3
Cytotoxicity of 1–13 was evaluated using the CellTiter-Blue assay on KB, MCF7, SK-OV-3, and HEK293 cells. KB cells are derived from human cervical cancer, while SK-OV-3 cells are derived from human ovarian cancer. […] This feature is of particular relevance in anticancer applications, as it can be exploited for selective targeting and delivery. MCF7 is a cell line derived from human breast cancer with low levels of folate receptor α [27]. Therefore, it can serve as the negative control for folate receptor α mediated tumor-targeted drug delivery systems. HEK293 is a non-cancer cell line and was chosen to evaluate the specificity of the tested compounds toward cancer cells.

The subject of a further data set is HEK293 cells. As to the kind of experiment: Cell viability assay (CellTiter-Blue), HEK293 cells. To be noted: 2 × 10^4 cells per well, DMEM + 10% FBS, 1% DMSO, 24 h at 37 °C, then CellTiter-Blue 4 h, three biological replicates fitted in Origin, standard error in brackets. As for the experimental part:
as §1, §2, §3, §4
In general terms: Resazurin is reduced to fluorescent resorufin, in cell work by metabolically active cells.

The subject of a further data set is MCF7 cells. The data set can be described thus: Cell viability assay (CellTiter-Blue), MCF7 cells. To be noted: for EC50: MCF7 cells, 2 × 10^4 cells per well, DMEM + 10% FBS, 1% DMSO, 24 h at 37 °C, then CellTiter-Blue 4 h, three biological replicates fitted in Origin, standard error in brackets. As for the experimental part:
as §1, §2, §3, §4

Another data set deals with SK-OV-3 cells. As to the kind of experiment: Cell viability assay (CellTiter-Blue), SK-OV-3 cells. The note with it: 2 × 10^4 cells per well, medium + 10% FBS, 1% DMSO, 24 h at 37 °C, then CellTiter-Blue 4 h, three biological replicates fitted in Origin, standard error in brackets. The procedure: as §1, §2, §3, §4

For the compound `C[C@@H](NC(=O)[C@H](CC1CCCCC1)NC(=O)[C@@H](CCCCN)NC(=O)[C@@H](C)NC(=O)[C@@H](CC1CCCCC1)NC(=O)[C@H](N)CCCCN)C(=O)N[C@H](CCCCN)C(=O)N[C@H](CCCCN)C(=O)N[C@@H](CC1CCCCC1)C(=O)N[C@H](C)C(=O)N[C@H](CCCCN)C(=O)N[C@H](CC1CCCCC1)C(=O)N[C@H](C)C(=O)N[C@H](CCCCN)C(N)=O` [Compound 4, reference compound] (HELM PEPTIDE1{[dK].[O=C([C@@H](CC1CCCCC1)N[*:1])[*:2]].[dA].[dK].[Cha].[dA].[dK].[dK].[Cha].[dA].[dK].[O=C([C@@H](CC1CCCCC1)N[*:1])[*:2]].[dA].[dK].[am]}$$$$V2.0), the 50% effective concentration (EC50) with KB cells is 6.5 µM; in the data set on HEK293 cells, 15.6 µM; in the data set on MCF7 cells it was 50.9 µM; with SK-OV-3 cells, 11.6 µM. Besides, the “Potency (cytotoxicity) in the tested cell lines, in words” value in data set [1] (KB, SK-OV-3, MCF7 and HEK293 cells, CellTiter-Blue, extra sum-of-squares F test) is listed as “good potency in all tested cell lines”. Further, the “EC50 in MCF7 cells, times higher than in the other tested cell lines” value in the data set with MCF7 cells (MCF7 versus KB, SK-OV-3 and HEK293) is 3-8 times.

With `CC(=O)N[C@@H](CCCCNC(=O)[C@H](CCC(=O)O)NC(=O)c1ccc(NCc2cnc3nc(N)nc(O)c3n2)cc1)C(=O)N[C@@H](CCCCN)C(=O)N[C@@H](CC(C)C)C(=O)N[C@@H](C)C(=O)N[C@@H](CCCCN)C(=O)N[C@@H](CC(C)C)C(=O)N[C@@H](C)C(=O)N[C@@H](CCCCN)C(=O)N[C@@H](CCCCN)C(=O)N[C@@H](CC(C)C)C(=O)N[C@@H](C)C(=O)N[C@@H](CCCCN)C(=O)N[C@@H](CC(C)C)C(=O)N[C@@H](C)C(=O)N[C@@H](CCCCN)C(N)=O` [Compound 11], the EC50 with KB cells is 242 µM; with HEK293 cells, over 400 µM; in the data set on MCF7 cells, over 400 µM; in the data set with SK-OV-3 cells it was over 400 µM. Moreover, the “Selectivity of cytotoxicity between cell lines, in words” value (shortened to “Selectivity”) in data set [1] is “enhanced toxicity in KB but not in SK-OV-3 cells when compared to MCF7 and HEK293 cells”.

Consider `CC(=O)N[C@@H](CCCCNC(=O)[C@H](CCC(=O)O)NC(=O)c1ccc(NCc2cnc3nc(N)nc(O)c3n2)cc1)C(=O)N[C@H](CCCCN)C(=O)N[C@H](CC(C)C)C(=O)N[C@H](C)C(=O)N[C@H](CCCCN)C(=O)N[C@H](CC(C)C)C(=O)N[C@H](C)C(=O)N[C@H](CCCCN)C(=O)N[C@H](CCCCN)C(=O)N[C@H](CC(C)C)C(=O)N[C@H](C)C(=O)N[C@H](CCCCN)C(=O)N[C@H](CC(C)C)C(=O)N[C@H](C)C(=O)N[C@H](CCCCN)C(N)=O` [Compound 12], for which the EC50 in the data set on KB cells was 151 µM; in the data set with HEK293 cells, over 400 µM; with MCF7 cells it was over 400 µM; in the data set on SK-OV-3 cells, 388 µM. Moreover, the “Selectivity” value in data set [1] was “enhanced toxicity in KB but not in SK-OV-3 cells when compared to MCF7 and HEK293 cells”.

In the case of `CC(=O)N[C@@H](CCCCNC(=O)[C@H](CCC(=O)O)NC(=O)c1ccc(NCc2cnc3nc(N)nc(O)c3n2)cc1)C(=O)N[C@H](CCCCN)C(=O)N[C@H](CC1CCCCC1)C(=O)N[C@H](C)C(=O)N[C@H](CCCCN)C(=O)N[C@@H](CC1CCCCC1)C(=O)N[C@H](C)C(=O)N[C@H](CCCCN)C(=O)N[C@H](CCCCN)C(=O)N[C@@H](CC1CCCCC1)C(=O)N[C@H](C)C(=O)N[C@H](CCCCN)C(=O)N[C@H](CC1CCCCC1)C(=O)N[C@H](C)C(=O)N[C@H](CCCCN)C(N)=O` [Compound 13] (Ac-K([Glu-Pteroyl])[dK][dCha][dA][dK][Cha][dA][dK][dK][Cha][dA][dK][dCha][dA][dK]-NH2), the EC50 is 9.8 µM with KB cells, 20.4 µM with HEK293 cells, 26.9 µM in the data set with MCF7 cells and 41.5 µM in the data set on SK-OV-3 cells. Also, the “Selectivity” value in data set [1] is on record as “significantly higher”.

The values are drawn from article PMC9138991, “Effect of Trimethine Cyanine Dye- and Folate-Conjugation on the In Vitro Biological Activity of Proapoptotic Peptides” (Biomolecules, 2022).
